Laboratory results as given in patent US7189754B2, “Pyrrolidine ester derivatives with oxytocin modulating activity” (Applied Research Systems ARS Holding NV, priority 2001, dated 2007).
pIC50: −log10 of the molar value.

Columns and labels:
[1] = target: T1, human Oxytocin (hOT) receptor (Homo sapiens, UniProt P30559); test: In vitro competition binding assay on hOT receptor with scintillation proximity assay ([125I]-OVTA); conditions: HEK293EBNA membranes expressing hOT receptor, 0.2 nM [125I]-OVTA, SPA; read-out: Binding affinity human OT-R IC50
T1 construct: expressed in transfected cells; host or cells: HEK293EBNA
T1 sequence (P30559 1-389): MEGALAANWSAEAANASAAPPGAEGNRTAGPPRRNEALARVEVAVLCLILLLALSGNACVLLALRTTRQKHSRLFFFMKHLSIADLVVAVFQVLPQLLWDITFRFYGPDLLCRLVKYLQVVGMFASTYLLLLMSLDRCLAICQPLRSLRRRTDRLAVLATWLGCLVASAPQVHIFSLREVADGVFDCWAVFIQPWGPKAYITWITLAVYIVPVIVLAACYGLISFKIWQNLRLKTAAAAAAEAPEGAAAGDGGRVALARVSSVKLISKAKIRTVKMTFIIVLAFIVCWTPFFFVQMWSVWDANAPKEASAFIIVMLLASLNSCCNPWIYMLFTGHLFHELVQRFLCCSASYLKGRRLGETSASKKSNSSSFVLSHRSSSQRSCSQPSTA
Procedure: a) In Vitro Competition Binding Assay on hOT Receptor with Scintillation Proximity Assay (see Cook, N. D. et al. Pharmaceutical Manufacturing International 1992; p.49–53)
This assay allows to determine the affinity of the test compounds for the human Oxytocin (hOT) receptor. Membranes from HEK293EBNA (cells expressing the hOT receptor) were suspended in buffer containing 50 mM Tris-HCl, pH 7.4, 5 mM MgCl2 and 0.1% BSA (w/v). The membranes (2–4 μg) were mixed with 0.1 mg SPA bead coated with wheat-germ aglutinin (WGA-PVT-Polyethylene Imine beads from Amersham) and 0.2 nM of the radiolabelled [^125I]-OVTA (OVTA being Ornithin Vasoactive, an analogue of OT for competitive binding experiments). Non-specific binding was determined in the presence of 1 μM Oxytocin. The total assay volume was 100 μl. The plates (Corning® NBS plate) were incubated at room temperature for 30 min and counted on a Mibrobeta® plate scintillation counter. Competitive binding was performed in presence of compounds of formula (I) at the following concentrations: 30 μM, 10 μM, 1 μM, 300 nM, 100 nM, 10 nM, 1 nM, 100 pM, 10 pM. The competitive binding data were analysed using the iterative, nonlinear, curve-fitting program, “Prism” (GraphPad Software, Inc).
The ability of the pyrrolidine derivatives of formula (I) to inhibit the binding of ^125I-OVTA to the OT-receptor was assessed using the above described in vitro biological assay. Representative values for some example compounds are given in Table 1, where the binding affinity of the compounds is expressed by the IC50 (μM) which is the concentration upon which 50% inhibition of OT-R is achieved. From these values, it can be derived that said test compounds according to formula (I) do show a significant binding to the oxytocin receptor.

[2] = target: T2, hOT receptor (Homo sapiens, UniProt P30559); test: Functional assay No. 1: inhibition of oxytocin mediated Ca2+-mobilization by FLIPR in HEK293EBNA cells; assay type: cell-based; conditions: HEK293EBNA cells expressing hOT receptor, OT 40 nM, fluo-4, FLIPR; read-out: Inhibition of Ca2+ mobiliation, hOT-R IC50
T2 construct: expressed in transfected cells; host or cells: HEK293EBNA
T2 sequence (P30559 1-389): T1 sequence (P30559 1-389)
Source text: b) Functional Assay No. 1: Inhibition of Oxytocin Mediated Ca^2+-mobilization by FLIPR® (Fluorimetric Imaging Plate Reader)
The action of OT on the OT-receptor triggers a complex cascade of events in the cell which leads to an increase in the intra-cytoplasmic Ca^2+ concentration. This increase in Ca^2+ concentration results from both calcium release from the sarcoplasmic reticulum (calcium stores) into the cytoplasm and from calcium influx from the extracellular space through Ca^2+ channels. […]
FLIPR® is a fluorimetric imaging device using a laser (Argon-ion laser) for simultaneous illumination and reading (cooled CCD camera) of each well of a 96-well-plate, thus enabling rapid measurements on a large number of samples. […]
The relative fluorescence of Fluo-4 (λex=488 nm, […]) is then measured by the FLIPR in presence or absence of compounds of formula (I). The fluorescence of the marker being sensitive to the amount of Ca^2+, the Ca^2+ movements can be detected. Then, the ability of compounds of formula (I) to antagonize the oxytocin-induced intracellular Ca^2+-mobilization mediated by the oxytocin receptor may be determined.
The activities of the pyrrolidine derivatives according to formula (I) were assessed using the above described in vitro biological assay. […]

| SMILES | pIC50 [1] | pIC50 [2] |
| --- | --- | --- |
| CO/N=C1/C[C@@H](C(=O)OC)N(C(=O)c2ccc(-c3ccccc3C)cc2)C1 [Methyl (2S,4Z)-4-(methoxyimino)-1-[(2′-methyl[1,1′-biphenyl]-4-yl)carbonyl]-2-pyrrolidinecarboxylate] | 7.92 | 7.82 |
| CO/N=C1\C[C@@H](C(=O)OC)N(C(=O)c2ccc(-c3ccccc3C)cc2)C1 [Methyl (2S,4E)-4-(methoxyimino)-1-[(2′-methyl[1,1′-biphenyl]-4-yl)carbonyl]-2-pyrrolidinecarboxylate] | 7.44 | 7.82 |
